Patent US11026944B2, “Compositions and methods for treating insomnia” (Eisai R&D Management Co., Ltd., priority 2014, dated 2021)

Tested on: subjects with insomnia
Experiment: 201 Study: polysomnography (SE, LPS, WASO) dose-response
Type: in vivo, human
Method: This was a multi-center, randomized, double-blind, adaptive design, dose-response study in subjects with insomnia. Subjects were randomized to 1 of 6 doses of compound A (1 mg, 2.5 mg, 5 mg, 10 mg, 15 mg and 25 mg) or placebo.
The study had 2 phases: Prerandomization and Randomization. The Prerandomization Phase lasted up to 21 days and consisted of a Screening Period (Days-21 to -2) and a Baseline Period (Day-1). After the Baseline Period, all eligible subjects were randomized in a double-blind manner to receive compound A or placebo for 15 nights during the Treatment Period (Days 1 to 15). All subjects then received placebo in a single-blind manner, for 2 nights (Days 16 to 17) during the Rebound Insomnia Assessment Period (Days 16 to 18). […] All subjects came to the clinic for screening procedures. During the Screening Period, subjects completed the Sleep Diary each day. Polysomnographic sleep was measured during the Screening Period on 2 consecutive nights between Day-9 and Day-3. The 8-hour polysomnograms (PSGs) were started at the median habitual bedtime calculated from responses on the Sleep Diary, which were completed for 7 days before the first PSG night. These recordings served as both eligibility screening PSGs and as Baseline PSGs. Subjects could leave the clinic between the screening/Baseline PSG nights.
All subjects returned to the clinic on Day-1 for Baseline Period procedures. They remained in the clinic until Day 3. Morning assessments on Day 1 provided the Baseline values for the KSS, the Digit Symbol Substitution Test (DSST), and the Reaction Time Index (RTI). Assessments at 6 hours after waketime provided the Baseline values for the Waking Function Battery (WFB), and the Profile of Mood States-Brief (POMS-B). Subjects were then randomized to receive 1 of 6 doses of compound A or placebo for the next 15 days. Study drugs were tablets containing compound A-matched placebo or compound A of 1 mg, 2.5 mg, 5 mg, or 10 mg and to be ingested 30 minutes before the median habitual bedtime calculated from their Sleep Diary responses during the Screening Period. An 8-hour PSG, starting at the same bedtime as used for the screening and Baseline PSG nights, was recorded on the first 2 treatment nights (Days 1 and 2). The Sleep Diary continued to be completed each day in the clinic, and assessments of insomnia severity (ISI), next-day residual effects (KSS, DSST, and RTI) were conducted while subjects were in the clinic. On specified study days, plasma concentrations of compound A were assessed while subjects were in the clinic in the morning after awakening and at trough just before dosing.
Subjects continued to take compound A or placebo 30 minutes before their anticipated, self-selected bedtime and continued to complete the Sleep Diary each day while at home during the Treatment Period. On Day 14 of the Treatment Period, subjects returned to the clinic. They remained in the clinic for 4 nights and the intervening days until Day 18. Eight-hour PSGs were recorded each night in the clinic, to start at the median habitual bedtime calculated from responses on the Sleep Diary completed on Days 3 to 13. The Sleep Diary continued to be completed each day in the clinic, and the ISI, KSS, DSST, RTI, were administered at prespecified time points during the daytime hours.
In Table 5, “Baseline” was defined as the mean of the screening PSG 1 and 2, within −9 to −3 days of randomization. “LS Means Diff” refers to the differences between LS Means of Placebo and each compound A dose, “95% CI” means to 95% CI of LS Means Diff. “p-value” was analyzed using analysis of covariance (ANCOVA) with baseline as a covariate.
In Table 7, “Baseline” was defined as the mean of the screening PSG 1 and 2, within −9 to −3 days of randomization. “p-value” was analyzed using analysis of covariance (ANCOVA) with baseline as a covariate.
In Table 8, “Baseline” was defined as the mean of the screening PSG 1 and 2, within −9 to −3 days of randomization. […]

[1] = Days 14 & 15 minus Days 1 & 2, 1 mg nightly
[2] = Days 14 & 15 minus Days 1 & 2, 2.5 mg nightly
[3] = Days 14 & 15 minus Days 1 & 2, 5 mg nightly
[4] = Days 14 & 15 minus Days 1 & 2, 10 mg nightly
[5] = Days 14 & 15 minus Days 1 & 2, 15 mg nightly
[6] = Days 14 & 15 minus Days 1 & 2, 25 mg nightly

## Cc1ncc(OC[C@@]2(c3cccc(F)c3)C[C@H]2C(=O)Nc2ccc(F)cn2)c(C)n1 [Compound A, (1R,2 S)-2-(((2,4-dimethylpyrimidin-5-yl)oxy)methyl)-2-(3-fluorophenyl)-N-(5-fluoropyridin-2-yl) cyclopropanecarboxamide]
1 mg nightly
  Change from Baseline in LPS, Mean of Days 1 & 2: Geometric Mean Ratio (compound A/placebo): 0.77
  Change from Baseline in LPS, Mean of Days 14 & 15: Geometric Mean Ratio (compound A /placebo): 0.73
  Change from Baseline in SE, Mean of Days 1 & 2: LS Means Diff vs placebo: 4.57%
  Change from Baseline in SE, Mean of Days 1 & 2: Mean: 21.1%
  Change from Baseline in SE, Mean of Days 14 & 15: LS Means Diff vs placebo: 0.34%
  Change from Baseline in SE, Mean of Days 14 & 15: Mean: 17.5%
  Change from Baseline in WASO, Mean of Days 1 & 2: LS Means Diff vs placebo: -11.1 min
  Change from Baseline in WASO, Mean of Days 1 & 2: Mean: -60.9 min
  Change from Baseline in WASO, Mean of Days 14 & 15: LS Means Diff vs placebo: 5.7 min
  Change from Baseline in WASO, Mean of Days 14 & 15: Mean: -43.6 min
1 mg, Mean of Days 1/2
  LPS geometric mean ratio vs placebo, significance: not statistically significant
2.5 mg nightly
  Change from Baseline in LPS, Mean of Days 1 & 2: Geometric Mean Ratio (compound A/placebo): 0.55
  Change from Baseline in LPS, Mean of Days 14 & 15: Geometric Mean Ratio (compound A /placebo): 0.49
  Change from Baseline in SE, Mean of Days 1 & 2: LS Means Diff vs placebo: 4.44%
  Change from Baseline in SE, Mean of Days 1 & 2: Mean: 21.3%
  Change from Baseline in SE, Mean of Days 14 & 15: LS Means Diff vs placebo: 3.94%
  Change from Baseline in SE, Mean of Days 14 & 15: Mean: 20.7%
  Change from Baseline in WASO, Mean of Days 1 & 2: LS Means Diff vs placebo: -2.3 min
  Change from Baseline in WASO, Mean of Days 1 & 2: Mean: -51.1 min
  Change from Baseline in WASO, Mean of Days 14 & 15: LS Means Diff vs placebo: -2.3 min
  Change from Baseline in WASO, Mean of Days 14 & 15: Mean: -48.9 min
5 mg nightly
  Change from Baseline in LPS, Mean of Days 1 & 2: Geometric Mean Ratio (compound A/placebo): 0.60
  Change from Baseline in LPS, Mean of Days 14 & 15: Geometric Mean Ratio (compound A /placebo): 0.47
  Change from Baseline in SE, Mean of Days 1 & 2: LS Means Diff vs placebo: 5.74%
  Change from Baseline in SE, Mean of Days 1 & 2: Mean: 21.2%
  Change from Baseline in SE, Mean of Days 14 & 15: LS Means Diff vs placebo: 5.76%
  Change from Baseline in SE, Mean of Days 14 & 15: Mean: 21.0%
  Change from Baseline in WASO, Mean of Days 1 & 2: LS Means Diff vs placebo: -11.3 min
  Change from Baseline in WASO, Mean of Days 1 & 2: Mean: -55.6 min
  Change from Baseline in WASO, Mean of Days 14 & 15: LS Means Diff vs placebo: -10.7 min
  Change from Baseline in WASO, Mean of Days 14 & 15: Mean: -52.2 min
10 mg
  LPS, Days 1/2 compared to Days 14/15: further improvement in LPS over time
10 mg nightly
  Change from Baseline in LPS, Mean of Days 1 & 2: Geometric Mean Ratio (compound A/placebo): 0.54
  Change from Baseline in LPS, Mean of Days 14 & 15: Geometric Mean Ratio (compound A /placebo): 0.32
  Change from Baseline in SE, Mean of Days 1 & 2: LS Means Diff vs placebo: 8.09%
  Change from Baseline in SE, Mean of Days 1 & 2: Mean: 21.9%
  Change from Baseline in SE, Mean of Days 14 & 15: LS Means Diff vs placebo: 7.78%
  Change from Baseline in SE, Mean of Days 14 & 15: Mean: 21.7%
  Change from Baseline in WASO, Mean of Days 1 & 2: LS Means Diff vs placebo: -19.8 min
  Change from Baseline in WASO, Mean of Days 1 & 2: Mean: -56.7 min
  Change from Baseline in WASO, Mean of Days 14 & 15: LS Means Diff vs placebo: -14.7 min
  Change from Baseline in WASO, Mean of Days 14 & 15: Mean: -48.5 min
15 mg nightly
  Change from Baseline in LPS, Mean of Days 1 & 2: Geometric Mean Ratio (compound A/placebo): 0.52
  Change from Baseline in LPS, Mean of Days 14 & 15: Geometric Mean Ratio (compound A /placebo): 0.41
  Change from Baseline in SE, Mean of Days 1 & 2: LS Means Diff vs placebo: 10.06%
  Change from Baseline in SE, Mean of Days 1 & 2: Mean: 23.8%
  Change from Baseline in SE, Mean of Days 14 & 15: LS Means Diff vs placebo: 7.89%
  Change from Baseline in SE, Mean of Days 14 & 15: Mean: 21.2%
  Change from Baseline in WASO, Mean of Days 1 & 2: LS Means Diff vs placebo: -29.3 min
  Change from Baseline in WASO, Mean of Days 1 & 2: Mean: -66.1 min
  Change from Baseline in WASO, Mean of Days 14 & 15: LS Means Diff vs placebo: -20.8 min
  Change from Baseline in WASO, Mean of Days 14 & 15: Mean: -53.4 min
25 mg nightly
  Change from Baseline in LPS, Mean of Days 1 & 2: Geometric Mean Ratio (compound A/placebo): 0.39
  Change from Baseline in LPS, Mean of Days 14 & 15: Geometric Mean Ratio (compound A /placebo): 0.34
  Change from Baseline in SE, Mean of Days 1 & 2: LS Means Diff vs placebo: 10.13%
  Change from Baseline in SE, Mean of Days 1 & 2: Mean: 22.7%
  Change from Baseline in SE, Mean of Days 14 & 15: LS Means Diff vs placebo: 8.87%
  Change from Baseline in SE, Mean of Days 14 & 15: Mean: 21.4%
  Change from Baseline in WASO, Mean of Days 1 & 2: LS Means Diff vs placebo: -25.8 min
  Change from Baseline in WASO, Mean of Days 1 & 2: Mean: -62.3 min
  Change from Baseline in WASO, Mean of Days 14 & 15: LS Means Diff vs placebo: -21.5 min
  Change from Baseline in WASO, Mean of Days 14 & 15: Mean: -53.9 min
[1]
  SE (B)-(A) Potential Habituation Effect: LS Means Diff vs placebo: −3.3%
  SE (B)-(A) Potential Habituation Effect: Mean: −4.0%
  WASO (B)-(A) Potential Habituation Effect: LS Means Diff vs placebo: 13.2 min
  WASO (B)-(A) Potential Habituation Effect: Mean: 18.0 min
[2]
  SE (B)-(A) Potential Habituation Effect: LS Means Diff vs placebo: 0.3%
  SE (B)-(A) Potential Habituation Effect: Mean: −0.5%
  WASO (B)-(A) Potential Habituation Effect: LS Means Diff vs placebo: -2.9 min
  WASO (B)-(A) Potential Habituation Effect: Mean: 2.2 min
[3]
  SE (B)-(A) Potential Habituation Effect: LS Means Diff vs placebo: 1.0%
  SE (B)-(A) Potential Habituation Effect: Mean: 0.1%
  WASO (B)-(A) Potential Habituation Effect: LS Means Diff vs placebo: -2.9 min
  WASO (B)-(A) Potential Habituation Effect: Mean: 2.7 min
[4]
  SE (B)-(A) Potential Habituation Effect: LS Means Diff vs placebo: 0.3%
  SE (B)-(A) Potential Habituation Effect: Mean: −0.7%
  WASO (B)-(A) Potential Habituation Effect: LS Means Diff vs placebo: 2.8 min
  WASO (B)-(A) Potential Habituation Effect: Mean: 9.3 min
[5]
  SE (B)-(A) Potential Habituation Effect: LS Means Diff vs placebo: −1.3%
  SE (B)-(A) Potential Habituation Effect: Mean: −2.3%
  WASO (B)-(A) Potential Habituation Effect: LS Means Diff vs placebo: 5.2 min
  WASO (B)-(A) Potential Habituation Effect: Mean: 11.8 min
[6]
  SE (B)-(A) Potential Habituation Effect: LS Means Diff vs placebo: −1.1%
  SE (B)-(A) Potential Habituation Effect: Mean: −2.1%
  WASO (B)-(A) Potential Habituation Effect: LS Means Diff vs placebo: 2.7 min
  WASO (B)-(A) Potential Habituation Effect: Mean: 9.3 min
Days 14 & 15 vs Days 1 & 2, 1 mg nightly
  LPS (B)-(A) Potential Habituation Effect: Geometric Mean Ratio (compound A/placebo): 0.93
Days 14 & 15 vs Days 1 & 2, 2.5 mg nightly
  LPS (B)-(A) Potential Habituation Effect: Geometric Mean Ratio (compound A/placebo): 0.90
Days 14 & 15 vs Days 1 & 2, 5 mg nightly
  LPS (B)-(A) Potential Habituation Effect: Geometric Mean Ratio (compound A/placebo): 0.77
Days 14 & 15 vs Days 1 & 2, 10 mg nightly
  LPS (B)-(A) Potential Habituation Effect: Geometric Mean Ratio (compound A/placebo): 0.60
Days 14 & 15 vs Days 1 & 2, 15 mg nightly
  LPS (B)-(A) Potential Habituation Effect: Geometric Mean Ratio (compound A/placebo): 0.76
Days 14 & 15 vs Days 1 & 2, 25 mg nightly
  LPS (B)-(A) Potential Habituation Effect: Geometric Mean Ratio (compound A/placebo): 0.89
All doses
  WASO, Days 1/2 compared to Days 14/15: no statistical evidence of an increase or decrease in WASO
All other doses (2.5-25 mg), Mean of Days 1/2
  LPS geometric mean ratios vs placebo, significance: evidence of statistical significance
Mean of Days 1/2, doses of 10 mg and above
  WASO change from baseline vs placebo, significance: statistically significant against placebo
Mean of Days 14/15, doses 15 mg and above
  WASO change from baseline vs placebo, significance: statistically significant against placebo
